#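 Method: 48-hour compound exposure of cells in 96-well plates, five concentrations, linear interpolation of endpoints. The concentration for 50% growth inhibition is given as GI50. TGI denotes the concentration required for complete inhibition of growth.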
# Legend:
# Experiment in all cases: NCI-60 cell line screen, 48 h
# [1] = system: DMS 273 small cell lung
# [2] = system: LXFL 529 NSCLC
# [3] = system: RXF-631 renal
# [4] = system: SNB-78 CNS
# [5] = system: MDA-N
# [6] = system: BT-549 breast
# [7] = system: MDA-MB-435
# [8] = system: MCF7 breast
# [9] = system: HS 578T breast
Compound,TGI [1] [µM],TGI [2] [µM],TGI [3] [µM],TGI [4] [µM],also measured
O=[N+]([O-])c1ccc(Sc2c3ccccc3nc3cc(Cl)ccc23)cc1,> 1,> 100,> 100,,GI50 [2]: > 100 µM; GI50 [3]: > 100 µM
CCNC(=O)COc1ccc(Cl)cc1Cl,> 100,> 100,> 100,> 100,
CN(C)C(=S)/N=c1\ssc(=S)n1Cc1ccncc1,76.3,82.1,38.4,> 100,
COC(=O)C1(C(=O)OC)CC(=O)c2cc3c(cc2-c2c(cc(OC)c(OC)c2OC)C1)OCO3,> 211,> 211,> 211,,
Cc1ccccc1C(=O)N1CCN(C(=O)c2ccccc2C)CC1,> 100,> 100,> 100,> 100,
CCCCN(CCCC)C(=O)/C(CC(=O)c1cccc2ccccc12)=N\NC(=O)c1cc2ccccc2cc1O,,> 100,70.5,99.7,
COC(=O)C1(O)CC(=O)CCC1c1ccc(OC)cc1 (stereo unspecified),> 100,,> 100,> 100,
C[N+](C)(C)CC1CCCCC1O (stereo unspecified),> 100,> 100,> 100,> 100,
CSc1nnc(COc2ccc(Cl)cc2)o1,> 100,> 100,,> 100,
CC(=O)OCC1OC(N2C(=O)C(=O)c3ccccc32)C(OC(C)=O)C(OC(C)=O)C1OC(C)=O (stereo unspecified),> 100,> 100,> 100,,
Cc1c(C(=O)O)oc2ccc([N+](=O)[O-])cc12,> 100,> 100,> 100,> 100,
COc1ccc(C(=O)NCCN(C)C)c2nc3ccccc3nc12,> 100,> 37.9,> 100,38.4,
Cc1nc(C(N)=S)sc1C(=O)/C=C/c1c(O)ccc2ccccc12,> 100,> 100,> 100,> 100,
CCC(=O)Nc1nc2c(ncn2C2OC(COC(=O)CC)C(OC(=O)CC)C2OC(=O)CC)c(=O)[nH]1 (stereo unspecified),> 100,> 100,,> 100,
C=C(C)C1C/C=C(/C)CCCC2(CCC3=C(CC(C(=C)C)C/C=C(/C)CCC3)O2)C(=O)C1 (stereo unspecified),> 100,> 100,,> 100,
CSC(=S)N/N=C/c1nccc2ccccc12,> 21.8,24.6,> 82.9,63.6,
Cc1cc(N(CCC#N)CCC#N)ccc1/C=C(\NC(=O)/C=C/c1ccccc1)C(=O)NN,> 100,> 100,,> 100,TGI [5]: > 100 µM; TGI [6]: 80.4 µM; TGI [7]: > 100 µM; TGI [8]: > 100 µM; TGI [9]: 77.5 µM
Cc1ccccc1NC(=O)C1C(=O)N(c2ccccc2C)C(=O)/C1=N\NC(N)=S (stereo unspecified),> 100,> 100,> 100,,
COc1ccc2[nH]c3c(c2c1)[C@H](C)C[C@@H]1C(=O)N(c2ccccc2)C(=O)[C@H]31,> 100,> 100,58.7,,
CC(C)(Oc1ccc(/C=C/C(=O)c2ccc(Cl)cc2)cc1)C(=O)Nc1c(Cl)cccc1Cl,,53.9,45.3,,
Nc1ncnc2c1ncn2CC(O)CO (stereo unspecified),> 100,> 100,> 100,> 100,
CSC(=NCCc1c[nH]c2ccccc12)NC#N,> 100,> 100,,> 100,
